The values that follow come from PubChem BioAssay (NCI).

Molecules are shown by their SMILES.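 48-hour exposure; five concentrations; linearly interpolated endpoints. The concentration for 50% growth inhibition is given as GI50. Definition used: TGI = concentration required for complete inhibition of growth.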 Bounds are passed on as bounds.

Among the test systems are HL-60(TB) leukemia; RPMI-8226 leukemia; SK-MEL-2 melanoma; OVCAR-8 ovarian; PC-3 prostate; HT29 colon; NCI-H460 lung; OVCAR-3 ovarian; SF-295 CNS; IGROV1 ovarian.
Holding throughout (experiment): NCI anticancer screen, dose series, 48 h

For `NC(=O)c1cc(Cl)ccc1NC(=O)/C=C/c1ccccc1`, the GI50 in the assay with HL-60(TB) leukemia is 1280 nM; in the assay on RPMI-8226 leukemia it was 2.86 µM; in the assay with SK-MEL-2 melanoma, 3.95 µM; with OVCAR-8 ovarian, 4.7 µM; in the assay with PC-3 prostate, 3.2 µM; in the assay with HT29 colon, 2.22 µM. Also, the GI50 in the assay on NCI-H460 lung is 3090 nM; in the assay on OVCAR-3 ovarian, 1300 nM; in the assay with SF-295 CNS it was 2580 nM; with IGROV1 ovarian, 3.03 µM. Further, the TGI in the assay on HL-60(TB) leukemia is 4.4 µM; in the assay with RPMI-8226 leukemia it was > 100 µM; in the assay on SK-MEL-2 melanoma, > 39.3 µM; in the assay with OVCAR-8 ovarian, > 100 µM; with PC-3 prostate it was > 100 µM; in the assay with HT29 colon, > 100 µM. In addition, the TGI in the assay on NCI-H460 lung was > 100 µM; in the assay on OVCAR-3 ovarian, 2.89 µM; in the assay on SF-295 CNS it was > 25.6 µM; in the assay with IGROV1 ovarian it was > 100 µM.
For the molecule `COc1ccc(C[N+](C)(C)N)cc1OC`, the GI50 with HL-60(TB) leukemia was > 100000 nM; in the assay on RPMI-8226 leukemia, > 100 µM; in the assay on OVCAR-8 ovarian, > 100 µM; with PC-3 prostate, > 100 µM; in the assay on HT29 colon, > 100 µM; in the assay with OVCAR-3 ovarian it was > 100000 nM. Also, the GI50 in the assay on SF-295 CNS is > 100000 nM. Moreover, the TGI in the assay on HL-60(TB) leukemia, in the assay on RPMI-8226 leukemia, in the assay with SK-MEL-2 melanoma, in the assay with OVCAR-8 ovarian, in the assay on PC-3 prostate and with HT29 colon was > 100 µM in each case. Also, the TGI in the assay with NCI-H460 lung, in the assay on OVCAR-3 ovarian, with SF-295 CNS and in the assay with IGROV1 ovarian was > 100 µM in each case.
Consider `CN(C)CCNc1ccc(CO)c2oc3ccc(O)cc3c(=O)c12`, for which the TGI with HL-60(TB) leukemia was determined as 30.9 µM; in the assay with RPMI-8226 leukemia it was 51.1 µM; with SK-MEL-2 melanoma it was 30.7 µM; in the assay with OVCAR-8 ovarian, 14.4 µM; in the assay with PC-3 prostate it was 29.3 µM; in the assay with HT29 colon, 44.9 µM. The TGI with NCI-H460 lung was 17.4 µM; with OVCAR-3 ovarian, 42.1 µM; with SF-295 CNS it was 41.5 µM; in the assay on IGROV1 ovarian, 57.2 µM.
Regarding `C/C(=N\Nc1ccc(Cl)cn1)c1ccc2ccccc2n1`, the GI50 in the assay with HL-60(TB) leukemia is 2180 nM; with RPMI-8226 leukemia it was 2.05 µM; in the assay with SK-MEL-2 melanoma, 6.67 µM; in the assay with OVCAR-8 ovarian, 3.04 µM; in the assay with PC-3 prostate it was 3.44 µM; in the assay with HT29 colon it was 5.05 µM. Besides, the GI50 in the assay on NCI-H460 lung was 2920 nM; in the assay with OVCAR-3 ovarian, 545 nM; in the assay with SF-295 CNS, 3060 nM; with IGROV1 ovarian it was 2.88 µM. In addition, the TGI in the assay on HL-60(TB) leukemia is 8.95 µM; with RPMI-8226 leukemia, > 100 µM; in the assay on SK-MEL-2 melanoma, > 100 µM; in the assay with OVCAR-8 ovarian it was > 100 µM; with PC-3 prostate, > 100 µM; in the assay with HT29 colon, > 100 µM. The TGI in the assay with NCI-H460 lung is 19.6 µM; in the assay on OVCAR-3 ovarian, > 100 µM; with SF-295 CNS, > 100 µM; in the assay on IGROV1 ovarian, > 100 µM.
In the case of `Cc1cc(C)c(NC(=O)c2sc3nc4c(cc3c2N)C(=O)CCC4)c(C)c1`, the GI50 is 3640 nM in the assay with HL-60(TB) leukemia; 4.74 µM with RPMI-8226 leukemia; 0.468 µM in the assay on SK-MEL-2 melanoma; 5.88 µM with OVCAR-8 ovarian; 1.96 µM in the assay with PC-3 prostate; 3.09 µM in the assay on HT29 colon. Besides, the GI50 in the assay with NCI-H460 lung was 1560 nM; with OVCAR-3 ovarian, 2460 nM; in the assay on SF-295 CNS, 755 nM; with IGROV1 ovarian, 5.58 µM. In addition, the TGI was > 100 µM in the assay with HL-60(TB) leukemia; > 100 µM in the assay with RPMI-8226 leukemia; 38.7 µM in the assay with SK-MEL-2 melanoma; > 100 µM in the assay on OVCAR-8 ovarian; > 100 µM in the assay on PC-3 prostate; 11.1 µM in the assay with HT29 colon. Moreover, the TGI in the assay on NCI-H460 lung is 21.2 µM; in the assay on OVCAR-3 ovarian it was 8.62 µM; with SF-295 CNS, > 100 µM; in the assay on IGROV1 ovarian, > 100 µM.
As to `OCC1OC(n2cnc3c2NC=NC[C@H]3O)C(Cl)C1O` (stereo partly specified), the TGI in the assay on HL-60(TB) leukemia, in the assay on RPMI-8226 leukemia, in the assay on SK-MEL-2 melanoma, in the assay with OVCAR-8 ovarian, in the assay with PC-3 prostate and with HT29 colon was > 100 µM throughout. The TGI in the assay with NCI-H460 lung, in the assay with OVCAR-3 ovarian, in the assay on SF-295 CNS and in the assay on IGROV1 ovarian was > 100 µM each time.
Regarding `c1ccc(Sc2ccc(Cc3nc4cc5ccccc5cc4[nH]3)cc2)cc1`, the GI50 in the assay with HL-60(TB) leukemia is 76400 nM; in the assay on RPMI-8226 leukemia it was 3.77 µM; in the assay with SK-MEL-2 melanoma it was 53.6 µM; with OVCAR-8 ovarian, 7.46 µM; in the assay on PC-3 prostate, 4.56 µM; in the assay on HT29 colon, 8.54 µM. Besides, the GI50 in the assay on NCI-H460 lung was 210 nM; in the assay with OVCAR-3 ovarian it was 8340 nM; in the assay on SF-295 CNS, 2650 nM; in the assay with IGROV1 ovarian, 27.1 µM. For the same molecule, the TGI in the assay on HL-60(TB) leukemia is > 100 µM; with RPMI-8226 leukemia, 49.7 µM; in the assay with SK-MEL-2 melanoma, > 100 µM; with OVCAR-8 ovarian it was > 92.1 µM; in the assay with PC-3 prostate it was > 64.3 µM; in the assay on HT29 colon, > 100 µM. For the same molecule, the TGI with NCI-H460 lung is > 100 µM; in the assay on OVCAR-3 ovarian, 39.8 µM; with SF-295 CNS it was 34.7 µM; with IGROV1 ovarian, > 100 µM.
Regarding `COCC[C@H]1CCC/C=C/[C@@H]2C[C@H](O)C[C@H]2[C@H](O)/C=C/C(=O)O1`, the GI50 with HL-60(TB) leukemia is 273 nM; in the assay with RPMI-8226 leukemia, 0.284 µM; in the assay with SK-MEL-2 melanoma, 0.177 µM; with OVCAR-8 ovarian, 0.0483 µM; with PC-3 prostate, 0.193 µM; in the assay on HT29 colon, 0.0351 µM. The GI50 in the assay on NCI-H460 lung was 390 nM; in the assay with OVCAR-3 ovarian it was 50.5 nM; in the assay with SF-295 CNS, 79.6 nM; in the assay on IGROV1 ovarian, 0.331 µM. The TGI in the assay on HL-60(TB) leukemia is 0.87 µM; with SK-MEL-2 melanoma, 0.636 µM; with OVCAR-8 ovarian, > 100 µM; with PC-3 prostate, > 100 µM; with HT29 colon it was 0.227 µM; with NCI-H460 lung it was > 100 µM. Further, the TGI in the assay on OVCAR-3 ovarian was 0.273 µM; with SF-295 CNS, > 100 µM; in the assay on IGROV1 ovarian, > 29 µM.
On to `NS(=O)(=O)c1ccc(-c2ccc3c(NC(=O)C4CC4)n[nH]c3c2)cc1`, for which the GI50 was > 25000 nM with HL-60(TB) leukemia; > 25 µM in the assay on RPMI-8226 leukemia; > 25 µM in the assay with SK-MEL-2 melanoma; > 25 µM in the assay on OVCAR-8 ovarian; > 25 µM in the assay with PC-3 prostate; > 25 µM in the assay with HT29 colon. Besides, the GI50 in the assay on NCI-H460 lung was > 25000 nM; in the assay with OVCAR-3 ovarian, > 25000 nM; in the assay on SF-295 CNS, > 25000 nM; in the assay on IGROV1 ovarian it was > 25 µM. For the same molecule, the TGI in the assay on HL-60(TB) leukemia, in the assay on RPMI-8226 leukemia, in the assay with SK-MEL-2 melanoma, in the assay on OVCAR-8 ovarian, in the assay on PC-3 prostate and in the assay with HT29 colon was > 25 µM in each case. Moreover, the TGI with NCI-H460 lung, in the assay on OVCAR-3 ovarian, with SF-295 CNS and with IGROV1 ovarian was > 25 µM each time.
